From patent US20110159122A1, “COMBINATION OF EXTRACTS OF VARIOUS PLANTS FOR IMPROVING THE SYMPTOMS OF DEMENTIA DISORDERS” (Kneipp-Werke Kneipp-Mittel-Zentrale GmbH & Co,KG, priority 2008, published 2011)

What was measured:
central nervous system = test: tele-stereo EEG (electroencephalography) of rats after oral administration; type: in vivo; details: for effect of the compound according to formula I reached by known rooibos constituents: approximately equimolar quantities
From the text: In the context of the present invention, the pharmacological activity of the compound according to the invention of formula I was compared with the known constituents of the rooibos extract, such as aspalathin, catechin or (−)-epicatechin.
Since these drugs have a broad spectrum of side effects, the use of a rooibos extract with the compound according to formula I is advantageous as a drug because natural substances can usually be expected to have a lower rate of side effects. […] This is not generally commonplace for flavonoids.

[1] = solubility during the preparation of the HPLC standard solutions; type: physicochemical; details: preparation of the standard solutions for HPLC
monoamine oxidase = details: Plantextrakt, 2005; cited from earlier work

## O=C(CCc1ccc(O)c(O)c1)c1c(O)cc(O)c([C@@H]2O[C@H](CO)[C@@H](O)[C@H](O)[C@H]2O)c1O [aspalathin]
Central nervous system
  effect of the compound according to formula I reached by known rooibos constituents: cannot be achieved with approximately equimolar quantities

## O=c1cc(-c2ccc(O)c(O)c2)oc2c([C@@H]3O[C@H](CO)[C@@H](O)[C@H](O)[C@H]3O)c(O)cc(O)c12 [orientin, orientin(luteolin-8-C-glucoside)]
[1]
  solubility in standard solutions: exhibited solubility problems

## Oc1cc(O)c2c(c1)O[C@H](c1ccc(O)c(O)c1)[C@H](O)C2 [(−)-epicatechin]
Central nervous system
  effect of the compound according to formula I reached by known rooibos constituents: cannot be achieved with approximately equimolar quantities

## O=C(CCc1ccc(O)c(O)c1)c1c(O)c(C2OC(CO)C(O)C(O)C2O)c(O)c(C2c3c(O)cc(O)cc3OC(c3ccc(O)c(O)c3)C2O)c1O (centres unmarked) [compound of formula I, aspacat]
Central nervous system; concluded from the in vivo EEG data
  crossing of the blood-brain barrier: evidently also crosses the blood-brain barrier
Central nervous system; rat, in vivo
  discriminant analysis of the in vivo data: a relationship with the drugs for the treatment of dementias, Morbus Parkinson, depression and painful conditions
Central nervous system; rats, oral administration
  pharmacological activity on the central nervous system in tele-stereo EEG: marked pharmacological activity on the central nervous system
Central nervous system; rats, oral administration, as known for galantamine, tacrine, L-DOPA, nefopam
  changes in the EEG frequencies: dose-dependent changes in the EEG frequencies
Central nervous system; versus aspalathin, catechin, (−)-epicatechin
  pharmacological activity compared with known constituents of the rooibos extract: higher pharmacological activity than these known constituents of the rooibos extract

## O=c1cc(-c2ccc(O)cc2)oc2c([C@@H]3O[C@H](CO)[C@@H](O)[C@H](O)[C@H]3O)c(O)cc(O)c12 [vitexin, vitexin(apigenin-8-C-glucoside)]
[1]
  solubility in standard solutions: exhibited solubility problems

## O=c1c(O)c(-c2ccc(O)c(O)c2)oc2cc(O)cc(O)c12 [Quercetin]
Monoamine oxidase
  inhibition of the production of monoamine oxidase: capable of inhibiting the production of monoamine oxidase

## catechin
Central nervous system
  effect of the compound according to formula I reached by known rooibos constituents: cannot be achieved with approximately equimolar quantities
